Measured values reported in patent US20260083686A1, “METHODS FOR SUPPRESSING ACCUMULATION OF REFLUX-INDUCED PROTEIN ADDUCTS” (Vanderbilt University, priority 2018, published 2026).
Entries after “also recorded” stand apart in the source; their conditions may differ.

Key:
[1] = tested on: p53 isoLG protein adducts in EPC-2 cells; assay: p53 immunoprecipitation and Western blot with D11 antibody for p53 isoLG adducts in BA/A-treated EPC-2 cells; type: cell-based, human; details: 2-HOBA 50 μM, p53 (DO-1) immunoprecipitation, D11 Western blot
Protocol: To directly analyze p53 protein adducts, cellular lysates of EPC-2 cells, which were treated with BA/A in the presence or absence of 2-HOBA, were immunoprecipitated with p53 antibody. The immunoprecipitated p53 protein was then analyzed for the isoLG adducts by Western blotting with isoLG-specific D11 antibody.
Treatment With Acidic Bile Salts (BA/A) and 2-HOBA: Cells were treated in acidic DMEM media (pH 4.0), containing bile salts cocktail at final concentration of 100 μM. The bile salt cocktail was prepared with a combination of glycocholic, taurocholic, glycodeoxycholic, glycochenodeoxycholic and deoxycholic sodium salts (all reagents were from Sigma-Aldrich, St. Louis, MO) at a concentration of 20 μM each. TE-7 and HET-1A cells were treated for 30 minutes, whereas, EPC-2 cells were treated for 15 minutes and then the media was replaced. […]
For immunoprecipitation, cells were harvested by centrifugation at 200 g for 5 minutes and resuspended in PBS with protease inhibitor cocktail. […] The immunoprecipitated samples were analyzed by Western blotting with D11 antibody and anti-E tag HRP-conjugated antibodies from Abcam. The analyzed membranes were stripped in Restore™ Western Blot Stripping Buffer (ThermoFisher Scientific, Waltham, MA) at +50° C. for 1 hour, washed, and blocked with 5% milk and analyzed by Western blotting with p53 (DO1) antibody.

[2] = tested on: isoLG protein adducts in esophageal tissues; assay: Surgical (esophagojejunostomy) reflux model in mice, isoLG adducts by immunohistochemistry with D11 antibody; type: in vivo; details: 2-HOBA 1 mg/ml in drinking water for 10 days; for accumulation of isoLG adducts in esophageal tissues in vivo: mice with surgically induced reflux
Text: To investigate the formation of isoLG protein adducts in the esophagus, The present inventors used a surgical model of esophageal reflux injury. To generate animals with reflux, a section of the mouse jejunum was transected and then anastomosed to the esophagus resulting in an increased reflux. […] Using immunohistochemistry with D11 antibody, the present inventors compared levels of isoLG protein adducts in esophageal epithelia of animals with reflux induced by surgery and control animals with sham surgery. Levels of isoLG adducts were also analyzed in surgical animals treated with isoLG scavenger 2-HOBA for 10 days. The present inventors found significant accumulation of isoLG protein adducts in esophageal animal tissues affected by reflux.
Induction of Reflux in Mice: Reflux was induced by surgical procedure, esophagojejunal anastomosis, as previously described. Esophagojejunostomy was performed on fourteen 8-week-old 129SV mice according to the protocol approved by the Vanderbilt University Animal Care and Use Committee. Animals were then be allowed a 2-weeks recovery period on regular rodent chow ad libitum prior to were randomly assigned into two groups. First group of 7 mice with surgery was treated with 2-HOBA (1 mg/ml) delivered in drinking water for 10 days, while a control group (7 surgical animals) only received water. Additional control group of 5 animals with sham surgery received water. The esophagus and gastroesophageal junction areas from the test and control groups of animals were harvested, paraffin-embedded and analyzed by immunohistochemistry with D11 antibody. Indices of D11 positivity were scored and compared in test and control groups of animals.

[3] = tested on: isoLG protein adducts (LG-lysine lactam) in TE-7 cells; assay: LG-lysine lactam adducts by LC/ESI/MS/MS in TE-7 cells treated with acidic bile salts (BA/A); type: cell-based, human; details: BA/A 100 μM pH 4.0 for 30 min, 2-HOBA 50 μM
Text: Formation of LG-lysine adducts was further verified by quantification of the LG-lysyl lactam adducts using liquid chromatography-electrospray ionization-tandem mass spectrometry (LC/ESI/MS/MS) in TE-7 cells treated with BA/A. Our studies confirmed that levels of LG-lysine lactam adduct are higher in BA/A treated than control samples. Our quantification analyses were based on specific transitions from the molecular ion at m/z=479.2 to the specific fragment at m/z=332.1. The elution of the two fragment ions found in BA/A treated samples was similar to the [13C6]lysine-lactam internal standard (FIG. 2A). As an additional control, TE-7 cells were treated with BA/A as above but in the presence of known isoLG scavenger 2-hydroxybenzylamine (2HOBA) and analyzed by mass spectrometry.
Cell Lines: Human non-tumorous esophageal cell line (HET-1A) and human esophageal carcinoma cell line (TE-7) were purchased from ATCC. The morphology, karyotyping and PCR based techniques were used by ATCC to confirm the cell line identity. […]
Detection of Levuglandinyl-Lysine Lactam Using Liquid Chromatography/Electrospray Ionization/Tandem Mass Spectrometry (LC/ESI/MS/MS): Levuglandinyl-lysine lactam was analyzed in TE-7 cells treated with acidic bile salts and control untreated cells using LC/ESI/MS/MS. […]

NCc1ccccc1O [2-HOBA, 2-hydroxybenzylamine]
formation of p53 isoLG protein adducts [1]: significantly inhibited formation of p53 protein adducts; also recorded: inhibited the formation of p53 protein adducts | accumulation of isoLG adducts in esophageal tissues in vivo [2]: efficiently decreased isoLG protein adducts in mice in vivo; also recorded: prevents accumulation of isoLG adducts in vivo; also recorded: inhibited accumulation of isoLG adducts in vivo | accumulation of isoLG adducts in esophageal tissues in vivo ([2]; listed as 2HOBA): efficiently suppresses accumulation of reflux-induced protein adducts in vitro and in vivo | isoLG adducts: surgical animals treated with 2-HOBA versus sham control animals ([2]; mice): did not find significant difference | formation of isoLG protein adducts (LG-lysine lactam adduct levels) [3]: higher in BA/A-treated samples compared to control and treated with isoLG scavenger 2-HOBA | formation of isoLG protein adducts (LG-lysine lactam adduct levels) ([3]; listed as 2HOBA): inhibited formation of isoLG protein adducts
